The source made the active and inactive calls. No cut-off for these calls is given here.
Legend:
[1] = Antiviral activity against Respiratory syncytial virus long A infected in human Hep2 cells assessed as reduction in virus-induced cytopathic effect measured after 6 days by CCK8 assay; assay type: functional, cell-based, Respiratory syncytial virus type A; details: HEp-2, 144 h
[2] = Cytotoxicity against human Hep2 cells measured after 6 days by CCK8 assay; assay type: cell-based, HEp-2
[3] = Clearance in Wistar rat at […], iv by LC-MS/MS analysis; assay type: ADME, organism-based; details: in vivo
[4] = Oral availability in Wistar rat at […] by LC-MS/MS analysis; assay type: ADME, organism-based; details: in vivo
[5] = Intrinsic clearance in rat liver microsomes; assay type: ADME; details: read-out: CLH
[6] = Intrinsic clearance in human liver microsomes; assay type: ADME; details: read-out: CLH
[7] = Solubility of the compound by LYSA; assay type: physicochemical
[8] = Permeability of the compound by PAMPA assay; assay type: ADME; details: read-out: permeability
[9] = system: Respiratory syncytial virus; test: Inhibition of Respiratory syncytial virus long A fusion protein expressed in human Flp-In T-REx-293 cells assessed as inhibition of cell-cell fusion at 0.1 to 100 nM measured after 3 days by microscopic analysis; assay type: cell-based
[10] = Half life in Wistar rat at […], iv by LC-MS/MS analysis; assay type: ADME, organism-based; details: in vivo
[11] = Volume of distribution at steady state in Wistar rat at […], iv by LC-MS/MS analysis; assay type: ADME, organism-based; details: in vivo, read-out: Vdss
[12] = system: Respiratory syncytial virus; test: Antiviral activity against Respiratory syncytial virus long A infected in human Hep2 cells assessed as inhibition of viral replication measured after 3 days by plaque reduction assay; assay type: functional, organism-based; details: HEp-2, 72 h
[13] = system: Respiratory syncytial virus; test: Inhibition of Respiratory syncytial virus long A fusion protein expressed in expressed in human Flp-In T-REx-293 cells assessed as inhibition of cell-cell fusion at 1 to 100 nM measured after 3 days by microscopic analysis; assay type: cell-based

NCCNc1cc(N2CCN(c3ccc(Cl)cc3)CC2)nc2ccccc12
EC50 [1]: > 100 µM | CC50 at 144 h [2]: 6.6 µM

NCCNc1cc(N2CCN(C(=O)Cc3ccccc3Cl)CC2)nc2ccccc12
EC50 [1]: 0.077 µM | CC50 at 144 h [2]: > 100 µM

NCCNc1cc(N2CCN(C(=O)C3CCCCC3)CC2)nc2ccccc12
EC50 [1]: 9.24 µM | CC50 at 144 h [2]: > 100 µM

CS(=O)(=O)N1CCN(c2cc(NCCN)c3ccccc3n2)CC1
EC50 [1]: 2.27 µM | CC50 at 144 h [2]: > 100 µM

CC(C(=O)N1CCN(c2cc(NCCN)c3ccccc3n2)CC1)c1ccccc1 (stereo unspecified)
EC50 [1]: 0.091 µM | CC50 at 144 h [2]: > 100 µM

NCCNc1cc(N2CCN(C(=O)C3(c4ccccc4)CCCC3)CC2)nc2ccccc12
EC50 [1]: 3.82 µM | CC50 at 144 h [2]: > 100 µM

Cc1ccccc1CC(=O)N1CCN(c2cc(NCCN)c3ccccc3n2)CC1
EC50 [1]: 0.029 µM | CC50 at 144 h [2]: > 100 µM

Cc1ccc(CC(=O)N2CCN(c3cc(NCCN)c4ccccc4n3)CC2)cc1
EC50 [1]: 0.142 µM | CC50 at 144 h [2]: > 100 µM

NCCNc1cc(N2CCN(C(=O)c3ccccc3)CC2)nc2ccccc12
EC50 [1]: 0.57 µM | CC50 at 144 h [2]: > 100 µM

NCCNc1cc(N2CCN(C(=O)C3(c4ccccc4)CCC3)CC2)nc2ccccc12
EC50 [1]: 0.086 µM | CC50 at 144 h [2]: > 100 µM

NCCNc1cc(N2CCN(C(=O)Cc3cc(F)cc(F)c3)CC2)nc2ccccc12
EC50 [1]: 0.264 µM | CC50 at 144 h [2]: > 100 µM

COc1ccccc1CC(=O)N1CCN(c2cc(NCCN)c3ccccc3n2)CC1
EC50 [1]: 0.056 µM | CC50 at 144 h [2]: > 100 µM

CC(C)(C(=O)N1CCN(c2cc(NCCN)c3cc(Cl)ccc3n2)CC1)c1ccccc1
EC50 [1]: 0.099 µM | CC50 at 144 h [2]: 20.8 µM

CC(C)(C(=O)N1CCN(c2cc(NCCO)c3ccccc3n2)CC1)c1ccccc1
EC50 [1]: 0.322 µM | CC50 at 144 h [2]: > 100 µM

CC(C)(C(=O)N1CCN(c2cc(NCCN)c3ccccc3n2)CC1)c1ccccc1
clearance [3]: 222 mL/min/kg | bioavailability [4]: 57% | CLint scaled [5]: 16.6 mL/min/kg | CLint scaled [6]: 8.4 mL/min/kg | solubility [7]: > 400 µg/mL | Papp [8]: 0.74 ×10⁻⁶ cm/s | EC50 [1]: 0.028 µM | inhibition [9]: Active | half-life [10]: 3 h | Vd [11]: 36.9 L/kg | CC50 at 144 h [2]: > 100 µM | EC50 [12]: < 0.1 µM

NCCNc1cc(N2CCN(C(=O)Cc3cccc(F)c3)CC2)nc2ccccc12
EC50 [1]: 0.08 µM | CC50 at 144 h [2]: > 100 µM

NCCNc1cc(N2CCN(C(=O)C3(c4ccccc4)CC3)CC2)nc2ccccc12
EC50 [1]: 0.017 µM | CC50 at 144 h [2]: > 100 µM

NCCNc1cc(N2CCN(C(=O)Cc3cccc(Cl)c3)CC2)nc2ccccc12
EC50 [1]: 0.066 µM | CC50 at 144 h [2]: > 100 µM

NCC(O)CNc1cc(N2CCC(c3ccccc3)CC2)nc2ccccc12 (stereo unspecified)
EC50 [1]: 0.759 µM | CC50 at 144 h [2]: 20.8 µM

NCCNc1cc(N2CCN(C(=O)Cc3ccc(Cl)c(Cl)c3)CC2)nc2ccccc12
EC50 [1]: 0.22 µM | CC50 at 144 h [2]: 6.68 µM

CC(=O)N1CCN(c2cc(NCCN)c3ccccc3n2)CC1
EC50 [1]: 0.317 µM | CC50 at 144 h [2]: > 100 µM

NCCNc1cc(N2CCN(c3ccccc3)CC2)nc2ccccc12
EC50 [1]: 0.865 µM | CC50 at 144 h [2]: 20.8 µM

NCCNc1cc(N2CCN(c3cccc(Cl)c3)CC2)nc2ccccc12
EC50 [1]: 0.977 µM | CC50 at 144 h [2]: 6.4 µM

NCCNc1cc(N2CCN(C(=O)Cc3cccc(C(F)(F)F)c3)CC2)nc2ccccc12
EC50 [1]: 0.563 µM | CC50 at 144 h [2]: > 100 µM

NCCNc1cc(N2CCN(c3ccccc3Cl)CC2)nc2ccccc12
EC50 [1]: 2.01 µM | CC50 at 144 h [2]: 20.8 µM

NCCNc1cc(N2CCN(C(=O)Cc3ccccc3F)CC2)nc2ccccc12
EC50 [1]: 0.089 µM | CC50 at 144 h [2]: > 100 µM

CC(C)CC(=O)N1CCN(c2cc(NCCN)c3ccccc3n2)CC1
EC50 [1]: 1.88 µM | CC50 at 144 h [2]: > 100 µM

CCC(CC)(C(=O)N1CCN(c2cc(NCCN)c3ccccc3n2)CC1)c1ccccc1
EC50 [1]: 0.624 µM | CC50 at 144 h [2]: > 100 µM

NCCNc1cc(N2CCN(C(=O)Cc3ccc(F)c(F)c3)CC2)nc2ccccc12
EC50 [1]: 0.255 µM | CC50 at 144 h [2]: > 100 µM

NCCNc1cc(N2CCN(C(=O)Cc3ccc(F)cc3)CC2)nc2ccccc12
EC50 [1]: 0.095 µM | CC50 at 144 h [2]: > 100 µM

CC(C)(C(=O)N1CCN(c2cc(NCCN)c3c(Cl)cccc3n2)CC1)c1ccccc1
EC50 [1]: 7.96 µM | CC50 at 144 h [2]: 20.8 µM

NCCNc1cc(N2CCN(C(=O)Cc3ccccc3)CC2)nc2ccccc12
EC50 [1]: 0.079 µM | CC50 at 144 h [2]: > 100 µM

NCCNc1cc(N2CCN(S(=O)(=O)c3ccccc3)CC2)nc2ccccc12
EC50 [1]: 1.17 µM | CC50 at 144 h [2]: 20.5 µM

CCC(=O)N1CCN(c2cc(NCCN)c3ccccc3n2)CC1
EC50 [1]: 3.09 µM | CC50 at 144 h [2]: > 100 µM

NCCNc1cc(N2CCN(C(=O)CCc3ccccc3)CC2)nc2ccccc12
EC50 [1]: 0.464 µM | CC50 at 144 h [2]: > 100 µM

CC(C)(C(=O)N1CCN(c2cc(NCCN)c3ccc(Cl)cc3n2)CC1)c1ccccc1
EC50 [1]: 2.19 µM | CC50 at 144 h [2]: 20.9 µM

NCCNc1cc(N2CCN(C(=O)Cc3ccc(Cl)cc3)CC2)nc2ccccc12
EC50 [1]: 0.058 µM | CC50 at 144 h [2]: > 100 µM

N#Cc1cccc(CC(=O)N2CCN(c3cc(NCCN)c4ccccc4n3)CC2)c1
EC50 [1]: 0.225 µM | CC50 at 144 h [2]: > 100 µM

CNCCNc1cc(N2CCN(C(=O)C(C)(C)c3ccccc3)CC2)nc2ccccc12
clearance [3]: 143 mL/min/kg | bioavailability [4]: 41% | inhibition [13]: Active | CLint scaled [5]: 18 mL/min/kg | CLint scaled [6]: 5.7 mL/min/kg | solubility [7]: > 400 µg/mL | Papp [8]: 1.37 ×10⁻⁶ cm/s | EC50 [1]: 0.033 µM | half-life [10]: 7.3 h | Vd [11]: 67.9 L/kg | CC50 at 144 h [2]: > 100 µM

COc1cccc(CC(=O)N2CCN(c3cc(NCCN)c4ccccc4n3)CC2)c1
EC50 [1]: 0.098 µM | CC50 at 144 h [2]: > 100 µM

CC(=O)NCCNc1cc(N2CCN(C(=O)C(C)(C)c3ccccc3)CC2)nc2ccccc12
EC50 [1]: 15.6 µM | CC50 at 144 h [2]: > 100 µM

CC(C)C(=O)N1CCN(c2cc(NCCN)c3ccccc3n2)CC1
EC50 [1]: 0.847 µM | CC50 at 144 h [2]: > 100 µM

CN(C)CCNc1cc(N2CCN(C(=O)C(C)(C)c3ccccc3)CC2)nc2ccccc12
EC50 [1]: 0.929 µM | CC50 at 144 h [2]: 55.2 µM

Cc1cccc(CC(=O)N2CCN(c3cc(NCCN)c4ccccc4n3)CC2)c1
EC50 [1]: 0.059 µM | CC50 at 144 h [2]: > 100 µM

COc1ccc(CC(=O)N2CCN(c3cc(NCCN)c4ccccc4n3)CC2)cc1
EC50 [1]: 0.679 µM | CC50 at 144 h [2]: > 100 µM

CCC(C(=O)N1CCN(c2cc(NCCN)c3ccccc3n2)CC1)c1ccccc1 (stereo unspecified)
EC50 [1]: 0.556 µM | CC50 at 144 h [2]: > 100 µM

Reference: ChEMBL document CHEMBL3826939, “Discovery of Piperazinylquinoline Derivatives as Novel Respiratory Syncytial Virus Fusion Inhibitors” (ACS Med Chem Lett, 2016)
